Test results published in patent US5202315A, “Cephalosporin compounds” (Lucky, Ltd., priority 1989, dated 1993).
≈ marks a conversion by molar mass, not a printed value.

How the values were obtained:
[1] = test system: Acinetobacter calcoaceticus ATCC 15473; test: Antibacterial activity, MIC; assay type: cell-based; details: ATCC15473, ATCC 15473, agar two-fold dilution, 37° C., 20 hours, read-out: MIC
Summary of the method: (§1)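 Agar two-fold dilution method: compound serially diluted two-fold in Mueller-Hinton agar, spotted with 2 μl of a 10^7 CFU/ml inoculum of each standard strain, then incubated at 37 °C for 20 h.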

[2] = test system: Bacillus cereus ATCC 11778; test: Antibacterial activity, MIC; assay type: cell-based; details: ATCC11778, ATCC 11778, agar two-fold dilution, 37° C., 20 hours, read-out: MIC
Summary of the method: as §1

[3] = test system: Bacillus megaterium ATCC 9885; test: Antibacterial activity, MIC; assay type: cell-based; details: Priestia megaterium, ATCC9885; ATCC 9885; agar two-fold dilution, 37° C., 20 hours; read-out: MIC
Summary of the method: as §1

[4] = test system: Citrobacter freundii ATCC 8090; test: Antibacterial activity, MIC; assay type: cell-based; details: ATCC8090, ATCC 8090, agar two-fold dilution, 37° C., 20 hours, read-out: MIC
Summary of the method: as §1

[5] = test system: Enterobacter aerogenes ATCC 29751; test: Antibacterial activity, MIC; assay type: cell-based; details: Klebsiella aerogenes, ATCC29751; ATCC 29751; agar two-fold dilution, 37° C., 20 hours; read-out: MIC
Summary of the method: as §1

[6] = test system: Enterobacter cloacae ATCC 27508; test: Antibacterial activity, MIC; assay type: cell-based; details: ATCC27508, ATCC 27508, agar two-fold dilution, 37° C., 20 hours, read-out: MIC
Summary of the method: as §1

[7] = test system: Escherichia coli ATCC 10536; test: Antibacterial activity, MIC; assay type: cell-based; details: ATCC10536, agar two-fold dilution, 37° C., 20 hours
Summary of the method: as §1

[8] = test system: Escherichia coli ATCC 25922; test: Antibacterial activity, MIC; assay type: cell-based; details: ATCC25922, agar two-fold dilution, 37° C., 20 hours
Summary of the method: as §1

[9] = test system: Klebsiella pneumoniae ATCC 10031; test: Antibacterial activity, MIC; assay type: cell-based; details: ATCC10031, ATCC 10031, agar two-fold dilution, 37° C., 20 hours, read-out: MIC
Summary of the method: as §1

[10] = test system: Micrococcus luteus ATCC 9341; test: Antibacterial activity, MIC; assay type: cell-based; details: ATCC9341, ATCC 9341, agar two-fold dilution, 37° C., 20 hours, read-out: MIC
Summary of the method: as §1

[11] = test system: Morganella morganii ATCC 8076h; test: Antibacterial activity, MIC; assay type: cell-based; details: ATCC8076H, agar two-fold dilution, 37° C., 20 hours
Summary of the method: as §1

[12] = test system: Proteus mirabilis ATCC 25933; test: Antibacterial activity, MIC; assay type: cell-based; details: ATCC25933, ATCC 25933, agar two-fold dilution, 37° C., 20 hours, read-out: MIC
Summary of the method: as §1

[13] = test system: Proteus vulgaris ATCC 6059; test: Antibacterial activity, MIC; assay type: cell-based; details: ATCC6059, ATCC 6059, agar two-fold dilution, 37° C., 20 hours, read-out: MIC
Summary of the method: as §1

[14] = test system: Providencia rettgeri ATCC 9250; test: Antibacterial activity, MIC; assay type: cell-based; details: ATCC9250, agar two-fold dilution, 37° C., 20 hours
Summary of the method: as §1

[15] = test system: Pseudomonas aeruginosa ATCC 10145; test: Antibacterial activity, MIC; assay type: cell-based; details: ATCC10145, ATCC 10145, agar two-fold dilution, 37° C., 20 hours, read-out: MIC
Summary of the method: as §1

[16] = test system: Pseudomonas aeruginosa ATCC 25619; test: Antibacterial activity, MIC; assay type: cell-based; details: ATCC25619, ATCC 25619, agar two-fold dilution, 37° C., 20 hours, read-out: MIC
Summary of the method: as §1

[17] = test system: Pseudomonas aeruginosa ATCC 27853; test: Antibacterial activity, MIC; assay type: cell-based; details: ATCC27853, ATCC 27853, agar two-fold dilution, 37° C., 20 hours, read-out: MIC
Summary of the method: as §1

[18] = test system: Salmonella typhimurium ATCC 14028; test: Antibacterial activity, MIC; assay type: cell-based; details: Salmonella enterica; ATCC 14028; agar two-fold dilution, 37° C., 20 hours; read-out: MIC
Summary of the method: as §1

[19] = test system: Serratia marcescens ATCC 27117; test: Antibacterial activity, MIC; assay type: cell-based; details: ATCC27117, ATCC 27117, agar two-fold dilution, 37° C., 20 hours, read-out: MIC
Summary of the method: as §1

[20] = test system: Shigella flexneri ATCC 11836; test: Antibacterial activity, MIC; assay type: cell-based; details: ATCC11836, agar two-fold dilution, 37° C., 20 hours
Summary of the method: as §1

[21] = test system: Shigella sonnei ATCC 11060; test: Antibacterial activity, MIC; assay type: cell-based; details: ATCC11060, ATCC 11060, agar two-fold dilution, 37° C., 20 hours, read-out: MIC
Summary of the method: as §1

[22] = test system: Staphylococcus aureus ATCC 10537; test: Antibacterial activity, MIC; assay type: cell-based; details: ATCC10537, ATCC 10537, agar two-fold dilution, 37° C., 20 hours, read-out: MIC
Summary of the method: as §1

[23] = test system: Staphylococcus aureus ATCC 6538p; test: Antibacterial activity, MIC; assay type: cell-based; details: ATCC6538P, ATCC 6538p, agar two-fold dilution, 37° C., 20 hours, read-out: MIC
Summary of the method: as §1

[24] = test system: Staphylococcus epidermidis ATCC 12228; test: Antibacterial activity, MIC; assay type: cell-based; details: ATCC12228, ATCC 12228, agar two-fold dilution, 37° C., 20 hours, read-out: MIC
Summary of the method: as §1

[25] = test system: Staphylococcus aureus methicillin resistant; test: Antibacterial activity against clinically isolated strains, MIC; assay type: cell-based; details: methicillin resistant, 7 clinical isolates, broth microdilution test; for MIC90: read-out: MIC 90%
[26] = test system: Pseudomonas aeruginosa; test: as above; assay type: cell-based; details: 54 clinical isolates, broth microdilution test; for MIC90: read-out: MIC 90%
[27] = In-vivo absorbency (plasma concentrations & pharmacokinetic parameters); parameters: species or system SD rat (male); details: plasma, SD male rat, iv 20 mg/kg, read-out: Plasma Conc.

Structure (SMILES)	MIC [1] [µg/mL]	MIC [2] [µg/mL]	MIC [3] [µg/mL]	MIC [4] [µg/mL]	MIC [5] [µg/mL]	MIC [6] [µg/mL]	MIC [7] [µg/mL]	MIC [8] [µg/mL]	MIC [9] [µg/mL]	MIC [10] [µg/mL]	MIC [11] [µg/mL]	MIC [12] [µg/mL]	MIC [13] [µg/mL]	MIC [14] [µg/mL]	MIC [15] [µg/mL]	MIC [16] [µg/mL]	MIC [17] [µg/mL]	MIC [18] [µg/mL]	MIC [19] [µg/mL]	MIC [20] [µg/mL]	further results
C[n+]1c(N)cc(N)nc1SCC1=C(C(=O)[O-])N2C(=O)C(NC(=O)/C(=N\OC(C)(C)C(=O)O)c3csc(N)n3)[C@H]2SC1 (some centres unmarked) [Compound I-1, 7-[(Z)-2-(2-aminothiazol-4-yl)-2-(2-carboxyprop-2-oxyimino)acetamido]-3-(4,6-diamino-1-methylpyrimidinium-2-yl) thiomethyl-3-cephem-4-carboxylate]	2 (≈ 3.21 µM)	64 (≈ 103 µM)	0.25 (≈ 0.401 µM)	0.063 (≈ 0.101 µM)	1 (≈ 1.6 µM)	0.016 (≈ 0.0257 µM)	0.063 (≈ 0.101 µM)	0.063 (≈ 0.101 µM)	0.063 (≈ 0.101 µM)	0.25 (≈ 0.401 µM)	≤ 0.008	0.031 (≈ 0.0497 µM)	0.031 (≈ 0.0497 µM)	≤ 0.008	2 (≈ 3.21 µM)	1 (≈ 1.6 µM)	1 (≈ 1.6 µM)	0.13 (≈ 0.208 µM)	0.063 (≈ 0.101 µM)	0.031 (≈ 0.0497 µM)	MIC [21]: 0.031 µg/mL (≈ 0.0497 µM); MIC [22]: 1 µg/mL (≈ 1.6 µM); MIC [23]: 2 µg/mL (≈ 3.21 µM); MIC [24]: 1 µg/mL (≈ 1.6 µM); MIC50 [25]: > 128 µg/mL; MIC90 [25]: > 128 µg/mL; MIC50 [26]: 1 µg/mL (≈ 1.6 µM); MIC90 [26]: 4 µg/mL (≈ 6.41 µM); concentration at 1 min [27]: 152000 ng/mL; concentration at 2.5 min [27]: 101000 ng/mL; concentration at 5 min [27]: 65000 ng/mL; concentration at 10 min [27]: 45000 ng/mL; concentration at 20 min [27]: 29000 ng/mL; concentration at 40 min [27]: 14000 ng/mL
CC[n+]1c(N)cc(N)nc1SCC1=C(C(=O)[O-])N2C(=O)C(NC(=O)/C(=N\OC(C)(C)C(=O)O)c3csc(N)n3)C2SC1 (centres unmarked) [Compound I-2]	4 (≈ 6.27 µM)	64 (≈ 100 µM)	0.5 (≈ 0.784 µM)	0.13 (≈ 0.204 µM)	2 (≈ 3.14 µM)	0.031 (≈ 0.0486 µM)	0.063 (≈ 0.0988 µM)	0.063 (≈ 0.0988 µM)	0.063 (≈ 0.0988 µM)	0.25 (≈ 0.392 µM)	≤ 0.008	0.031 (≈ 0.0486 µM)	0.031 (≈ 0.0486 µM)	≤ 0.008	2 (≈ 3.14 µM)	1 (≈ 1.57 µM)	1 (≈ 1.57 µM)	0.25 (≈ 0.392 µM)	0.13 (≈ 0.204 µM)	0.031 (≈ 0.0486 µM)	MIC [21]: 0.063 µg/mL (≈ 0.0988 µM); MIC [22]: 2 µg/mL (≈ 3.14 µM); MIC [23]: 2 µg/mL (≈ 3.14 µM); MIC [24]: 1 µg/mL (≈ 1.57 µM); MIC50 [25]: > 128 µg/mL; MIC90 [25]: > 128 µg/mL; MIC50 [26]: 2 µg/mL (≈ 3.14 µM); MIC90 [26]: 4 µg/mL (≈ 6.27 µM); concentration at 1 min [27]: 55000 ng/mL; concentration at 2.5 min [27]: 33000 ng/mL; concentration at 5 min [27]: 22000 ng/mL; concentration at 10 min [27]: 14000 ng/mL; concentration at 20 min [27]: 7300 ng/mL; concentration at 40 min [27]: 4500 ng/mL
